40 compounds from patent publication US5300499A, “5-substituted 3-thiophene sulfonamides as antiglaucoma agents” (Allergan, Inc., priority 1992, dated 1994) can be followed below.

pIC50: −log10 of the molar value. Values joined by “and” are separate entries in the source; they are usually repeats but may differ in a detail not shown here. Equal entries are not always repeated.

The target of the experiment is T1, pure CA11 enzyme from human erythrocyte (Homo sapiens, UniProt P00918).
T1 construct: pure CA11 enzyme from human erythrocyte; from tissue; host or cells: human erythrocyte
Kind of experiment: Carbonic anhydrase activity assay, micromethod of Maren. Type of experiment: biochemical. Conditions: concentration that lowers the enzyme activity to half; 0°-4° C.; phenol red endpoint, pH 9.9 to 6.8. Here is the method: Carbonic anhydrase activity was assayed according to the micromethod of Maren (J. Pharmacol. Exptl. Therap., 130, 26-29, 1960). All solutions and reagents were maintained at 0°-4° C. The final assay mixture contained 16 mM phenol red, added enzyme and 62.5 mM sodium carbonate/bicarbonate. Its volume was kept constant at 0.8 mL. The time required for the added enzyme to lower the pH of CO2 -saturated carbonate/bicarbonate buffer from pH 9.9 to 6.8 was measured using the color change of phenol red as endpoint. T1 is the time recorded for the reaction containing no enzyme. T2 is the time recorded for the reaction containing pure CA11 enzyme from human erythrocyte, or an unknown amount in a sample. Enzyme activities (unit) were calculated using the formula:
Unit/ug=(T1 -T2)/(T2 *ug protein used in assay)
IC50 of a carbonic anhydrase inhibitor is the concentration that lowers the enzyme activity to half.
As a reminder, the pIC50 is −log10 of the IC50, conventionally taken in molar units. A lower pIC50 goes with a large IC50. As to `CC(C)(C)OC(=O)c1ccc(C(=O)c2cc(S(N)(=O)=O)cs2)cc1` [5-(4-t-butoxycarbonylbenzoyl)-3-thiophene sulfonamide], the negative logarithm of the IC50 (pIC50) is 8.52.
For the compound `NS(=O)(=O)c1csc(C(=O)c2cccc(C(=O)O)c2)c1` [5-(3-carboxylbenzoyl)-3-thiophene sulfonamide], the pIC50 is 7.96 and 7.85.
The value for `CC(=O)OCc1ccc(C(=O)c2cc(S(N)(=O)=O)cs2)cc1` [5-(4-acetoxymethylbenzoyl)-3-thiophene sulfonamide] was 8.22; that for `COc1ccc(C(O)c2cc(S(N)(=O)=O)cs2)cc1` (stereo not shown) [5-(4-methoxybenzhydrol)-3-thiophene sulfonamide] was 7.80.
Then `NS(=O)(=O)c1csc(C(O)c2ccc(C=O)cc2)c1` (stereo not shown) [5-(4-formylbenzhydrol)-3-thiophene sulfonamide], with 7.74; and `NS(=O)(=O)c1csc(C(=O)c2ccc(C(=O)O)cc2)c1` [5-(4-carboxybenzoyl)-3-thiophene sulfonamide], with 8.47 and 8.30; and `COc1ccc(C(=O)c2cc(S(N)(=O)=O)cs2)cc1` [5-(4-methoxybenzoyl)-3-thiophene sulfonamide], with 7.59.
Then `NS(=O)(=O)c1csc(C(=O)c2cccc(C=O)c2)c1` [5-(3-formylbenzoyl)-3-thiophene sulfonamide], with 8.14.
Compound `NS(=O)(=O)c1csc(C(=O)c2ccc(CO)cc2)c1` [5-(4-hydroxymethylbenzoyl)-3-thiophene sulfonamide] gave a negative logarithm of the IC50 (pIC50) of 7.77.
The value for `NS(=O)(=O)c1csc(C(=O)c2cc(F)cc(F)c2)c1` [5-(3.5-difluorobenzoyl)-3-thiophene sulfonamide] was 7.82; that for `CCCCc1ccc(C(=O)c2cc(S(N)(=O)=O)cs2)cc1` [5-(4-butylbenzoyl)-3-thiophene sulfonamide] was 8.06; that for `NS(=O)(=O)c1csc(C(=O)c2cccc(F)c2)c1` [5-(3-fluorobenzoyl)-3-thiophene sulfonamide] was 7.92.
The value for `NS(=O)(=O)c1csc(C(O)c2cccc(O)c2)c1` (stereo not shown) [5-(3-hydroxybenzhydrol)-3-thiophene sulfonamide] was 7.43.
The value for `CCCCC(O)c1cc(S(N)(=O)=O)cs1` (stereo not shown) [5-(1-hydroxy-n-pentyl)-3-thiophene sulfonamide] was 7.49.
In turn, `COc1ccc(C(=NO)c2cc(S(N)(=O)=O)cs2)cc1` [5-(4-methoxybenzoyl)-3-thiophene sulfonamide, oxime] had a pIC50 of 7.51.
The value for `CCCCC(=O)c1cc(S(N)(=O)=O)cs1` [5-(1-pentanoyl)-3-thiophene sulfonamide] was 7.57.
The value for `COC(c1cccc(C(F)(F)F)c1)c1cc(S(N)(=O)=O)cs1` (stereo not shown) [5-[(methoxy)(3-trifluoromethylphenyl)methyl]-3-thiophene sulfonamide] was 7.74; that for `CCC(=O)Oc1ccc(C(=O)c2cc(S(N)(=O)=O)cs2)cc1` [5-(4-propionoxybenzoyl)-3-thiophene sulfonamide] was 8.05; that for `CC(=O)OC(c1ccccc1)c1cc(S(N)(=O)=O)cs1` (stereo not shown) [5-[(phenyl)(acetoxy)methyl]-3-thiophene sulfonamide] was 7.05.
As for `CCCCC(=NO)c1cc(S(N)(=O)=O)cs1` [5-(1-pentanoyl)-3-thiophene sulfonamide, oxime], the pIC50 was 7.66.
`CCOC(=O)c1ccc(C(=O)c2cc(S(N)(=O)=O)cs2)cc1` [5-(4-ethoxycarbonylbenzoyl)-3-thiophene sulfonamide] had a pIC50 of 8.22.
The value for `NS(=O)(=O)c1csc(C(O)c2ccc(O)cc2)c1` (stereo not shown) [5-(4-hydroxybenzhydrol)3-thiophene sulfonamide] was 7.59; that for `NS(=O)(=O)c1csc(C(O)c2ccccn2)c1` (stereo not shown) [5-[(hydroxy)(pyridyl)methyl]-3-thiophene sulfonamide] was 6.62; that for `NS(=O)(=O)c1csc(C(=O)c2ccccc2F)c1` [5-(2-fluorobenzoyl)-3-thiophene sulfonamide] was 7.74.
In turn, `NS(=O)(=O)c1csc(C(O)c2ccc(CO)cc2)c1` (stereo not shown) [5-(4-hydroxymethylbenzhydrol)-3-thiophene sulfonamide] had a pIC50 of 7.39.
Then `NS(=O)(=O)c1csc(C(=O)c2cccc(C(F)(F)F)c2)c1` [5-(3-trifluoromethylbenzoyl)-3-thiophene sulfonamide], with 8.08; and `CCCCCCC(=O)c1cc(S(N)(=O)=O)cs1` [5-(1-heptanoyl)-3-thiophene sulfonamide], with 7.85; and `NS(=O)(=O)c1csc(C(=O)c2ccccn2)c1` [[5-(3-sulfonamidothienyl)][2-pyridyl] ketone], with 7.72.
The value for `NS(=O)(=O)c1csc(C(=O)c2cccc(OC(=O)c3ccccc3)c2)c1` was 8.28; that for `NS(=O)(=O)c1csc(C(=NO)c2ccccc2)c1` [5-benzoyl-3-thiophene sulfonamide, oxime] was 7.28.
Then `NS(=O)(=O)c1csc(C(O)c2ccccc2)c1` (stereo not shown) [5-benzhydrol-3-thiophene sulfonamide, 5-(benzhydrol)-3-thiophene sulfonamide], with 7.13; and `NS(=O)(=O)c1csc(C(=O)c2ccccc2)c1` [5-benzoyl-3-thiophene sulfonamide], with 7.89.
Compound `NS(=O)(=O)c1csc(C(=O)c2ccc(C=O)cc2)c1` [5-(4-formylbenzoyl)-3-thiophene sulfonamide] showed a negative-log IC50 (pIC50) of 7.89.
Then `CCCCCCC(O)c1cc(S(N)(=O)=O)cs1` (stereo not shown) [5-(1-hydroxy-n-heptyl)-3-thiophene sulfonamide], with 7.51; and `NS(=O)(=O)c1csc(C(=O)c2ccc(O)cc2)c1` [5-(4-hydroxybenzoyl)-3-thiophene sulfonamide], with 7.77.
Turning to `CN(C)Cc1cc(C(=O)c2cc(S(N)(=O)=O)cs2)cc(CN(C)C)c1O` [5-(4-hydroxy-3,5-(bis-N,N-dimethylaminomethyl)benzoyl)-3-thiophene sulfonamide], the pIC50 is 6.81.
The value for `NS(=O)(=O)c1csc(C(=O)c2cccc(O)c2)c1` [5-(3-hydroxybenzoyl)-3-thiophene sulfonamide] was 8.17.
Then `COC(c1ccc(CO)cc1)c1cc(S(N)(=O)=O)cs1` (stereo not shown) [5-[(methoxy)(4-hydroxymethylphenyl)]methyl-3-thiophene sulfonamide], with 7.89; and `CN(C)Cc1cc(C(=O)c2cc(S(N)(=O)=O)cs2)ccc1O` [5-(4-hydroxy-3-(N,N-dimethylaminomethyl)benzoyl)-3-thiophene sulfonamide], with 7.52.
For `CC(=O)Oc1ccc(C(=O)c2cc(S(N)(=O)=O)cs2)cc1` [5-(4-acetoxybenzoyl)-3-thiophene sulfonamide], the pIC50 was 7.92 and 8.44.
